Experimental data as given in PMC7129916 (Clinical Microbiology and Infection, 2015).
In brackets after ≈: the same amount, converted by molar mass. Like-named read-outs stand apart in the source and are kept apart here.

How the values were obtained:
S. pneumoniae [1] = assay: microbe, parasite or virus in culture; type: cell-based; details: for susceptible (%): DIN breakpoints
H. influenzae (Hi) = assay: microbe, parasite or virus in culture; type: cell-based; details: Haemophilus influenzae
H. influenzae = assay: microbe, parasite or virus in culture; type: cell-based
S. pneumoniae (Sp) = assay: microbe, parasite or virus in culture; type: cell-based; details: Streptococcus pneumoniae
M. catarrhalis [2] = assay: microbe, parasite or virus in culture; type: cell-based
group B streptococci = type: cell-based
M. catarrhalis (Mc) = assay: microbe, parasite or virus in culture; type: cell-based; details: Moraxella catarrhalis
S. pneumoniae [3] = system: S. pneumoniae
M. catarrhalis [4] = assay: microbe, parasite or virus in culture; type: cell-based; details: Moraxella catarrhalis
invasive GAS isolates = type: cell-based, S. pyogenes
[5] = type: in vivo, human; details: after 6 months
[6] = system: viridans group streptococci; assay: organism not typed; type: cell-based
[7] = system: viridans Streptococci (S. mitis, S. oralis); type: cell-based; details: susceptible strains, salivary concentrations
[8] = system: S. pneumoniae with reduced susceptibility to ciprofloxacin; assay: microbe, parasite or virus in culture; type: cell-based
[9] = system: beta1-integrin in human tendon cells

MIC90 (S. pneumoniae (Sp)) | MIC50 (M. catarrhalis (Mc)) | MIC90 (M. catarrhalis (Mc)) | Molecule | susceptibility of all strains (group B streptococci) | %I (S. pneumoniae [3]; 2002 (n = 103)) | %S (S. pneumoniae [3]; 2002 (n = 103)) | %I (S. pneumoniae [3]; 2003 (n = 137)) | %R (S. pneumoniae [3]; 2003 (n = 137)) | %S (S. pneumoniae [3]; 2003 (n = 137)) | %I (S. pneumoniae [3]; 2004 (n = 110)) | %R (S. pneumoniae [3]; 2004 (n = 110)) | %S (S. pneumoniae [3]; 2004 (n = 110)) | also measured
8 µg/mL (≈ 18 µM) | – | 0.25 µg/mL (≈ 0.563 µM) | C[C@H]1c2cccc(O)c2C(=O)C2=C(O)[C@]3(O)C(=O)C(C(N)=O)=C(O)[C@@H](N(C)C)[C@@H]3[C@@H](O)[C@@H]21 [doxycycline] | – | – | – | – | – | – | – | – | – | –
1 µg/mL (≈ 2.77 µM) | 0.03 µg/mL (≈ 0.083 µM) | 0.06 µg/mL (≈ 0.166 µM) | C[C@H]1COc2c(N3CCN(C)CC3)c(F)cc3c(=O)c(C(=O)O)cn1c23 [levofloxacin] | susceptible | 3% | 96% | 0.7% | 1.5% | 97.8% | 0% | 0% | 100% | MIC50 (M. catarrhalis [4]): ≤ 0.03 µg/mL; MIC (M. catarrhalis [4]; read-out: MIC 10» (second value)): 1 µg/mL (≈ 2.77 µM); MIC90 (S. pneumoniae [1]; n = 426): 1 µg/mL (≈ 2.77 µM); MIC50 (H. influenzae (Hi)): 0.03 µg/mL (≈ 0.083 µM); MIC90 (H. influenzae (Hi)): 0.03 µg/mL (≈ 0.083 µM); time to eradication [7]: 12 to 24 h; MIC50 ([8]; Streptococcus pneumoniae): 0.5 µg/mL (≈ 1.38 µM); MIC90 ([8]; Streptococcus pneumoniae): 1 µg/mL (≈ 2.77 µM); MIC90 ([8]; ciprofloxacin MIC ≥8 mg/L): 8; MIC50 (S. pneumoniae (Sp)): 1 µg/mL (≈ 2.77 µM); amount of beta1-integrin vs untreated control ([9]; 3 mg/l, 1-4 days): no effect; %R (S. pneumoniae [3]; 2002 (n = 103)): 1%
2 µg/mL (≈ 6.04 µM) | 0.06 µg/mL (≈ 0.181 µM) | 0.06 µg/mL (≈ 0.181 µM) | O=C(O)c1cn(C2CC2)c2cc(N3CCNCC3)c(F)cc2c1=O [ciprofloxacin] | – | – | – | – | – | – | – | – | – | MIC50 (S. pneumoniae (Sp)): 1 µg/mL (≈ 3.02 µM); amount of beta1-integrin vs untreated control [9]: significant decrease
1 µg/mL (≈ 2.36 µM) | 1 µg/mL (≈ 2.36 µM) | – | CO/N=C(\C(=O)N[C@@H]1C(=O)N2C(C(=O)O)=C(COC(N)=O)CS[C@H]12)c1ccco1 [cefuroxime] | – | – | – | – | – | – | – | – | – | MIC50 (H. influenzae (Hi)): 1 µg/mL (≈ 2.36 µM)

The remaining lines, values behind:

Molecule | MIC90 (S. pneumoniae (Sp)) | MIC50 (M. catarrhalis (Mc)) | MIC90 (M. catarrhalis (Mc)) | susceptibility of all strains (group B streptococci) | %I (S. pneumoniae [3]; 2002 (n = 103)) | %S (S. pneumoniae [3]; 2002 (n = 103)) | %I (S. pneumoniae [3]; 2003 (n = 137)) | %R (S. pneumoniae [3]; 2003 (n = 137)) | %S (S. pneumoniae [3]; 2003 (n = 137)) | %I (S. pneumoniae [3]; 2004 (n = 110)) | %R (S. pneumoniae [3]; 2004 (n = 110)) | %S (S. pneumoniae [3]; 2004 (n = 110)) | also measured
CC1(C)S[C@@H]2[C@H](NC(=O)Cc3ccccc3)C(=O)N2[C@H]1C(=O)O [penicillin] | 0.5 µg/mL (≈ 1.5 µM) | 64 µg/mL (≈ 191 µM) | 64 µg/mL (≈ 191 µM) | susceptible | 31.1% | 46.6% | 55.5% | 5% | 39.5% | 30% | 11% | 59% | susceptible (%) (S. pneumoniae [1]): 93.3%; MIC50 (H. influenzae (Hi)): 1 µg/mL (≈ 2.99 µM); MIC90 (H. influenzae (Hi)): 64 µg/mL (≈ 191 µM); susceptible (%) (H. influenzae): 1.0%; MIC50 (S. pneumoniae (Sp)): 0.03 µg/mL (≈ 0.0897 µM); susceptible (%) (M. catarrhalis [2]): 9.8%; %R (S. pneumoniae [3]; 2002 (n = 103)): 22.3%
CO/N=C1\CN(c2nc3c(cc2F)c(=O)c(C(=O)O)cn3C2CC2)CC1CN (stereo not drawn) [gemifloxacin] | – | – | – | – | – | – | – | – | – | – | – | – | MIC50 (M. catarrhalis [4]): ≤ 0.12 µg/mL
teicoplanin | – | – | – | susceptible | – | – | – | – | – | – | – | – | –
CN(C)[C@@H]1C(O)=C(C(N)=O)C(=O)[C@@]2(O)C(O)=C3C(=O)c4c(O)cccc4[C@@](C)(O)[C@H]3C[C@@H]12 [tetracycline] | – | – | – | – | – | – | – | – | – | – | – | – | resistant isolates (invasive GAS isolates): 50%; mean per cent reduction, inflammatory lesions [5]: 56%; mean per cent reduction, non-inflammatory lesions [5]: 45%
quinupristin/dalfopristin | – | – | – | susceptible | – | – | – | – | – | – | – | – | –
CC[C@H]1OC(=O)[C@H](C)[C@@H](O[C@H]2C[C@@](C)(OC)[C@@H](O)[C@H](C)O2)[C@H](C)[C@@H](O[C@@H]2O[C@H](C)C[C@H](N(C)C)[C@H]2O)[C@](C)(OC)C[C@@H](C)C(=O)[C@H](C)[C@@H](O)[C@]1(C)O [clarithromycin] | – | – | – | – | 0% | 58.8% | 0% | 38.7% | 61.3% | 1% | 34.5% | 64.5% | susceptible (%) (S. pneumoniae [1]): 85.7%; susceptible (%) (H. influenzae): 4.5%
CO/N=C(\C(=O)N[C@@H]1C(=O)N2C(C(=O)O)=C(COC(C)=O)CS[C@H]12)c1csc(N)n1 [cefotaxime] | – | – | – | – | 3.8% | 95.2% | 4.4% | 0.6% | 95% | 3.8% | 0% | 96.2% | %R (S. pneumoniae [3]; 2002 (n = 103)): 1%
CC[C@H]1OC(=O)[C@H](C)[C@@H](O[C@H]2C[C@@](C)(OC)[C@@H](O)[C@H](C)O2)[C@H](C)[C@@H](O[C@@H]2O[C@H](C)C[C@H](N(C)C)[C@H]2O)[C@](C)(O)C[C@@H](C)C(=O)[C@H](C)[C@@H](O)[C@]1(C)O [erythromycin] | – | – | – | – | 0% | 56.9% | 1.4% | 38.8% | 59.8% | 0% | 35.5% | 64.5% | MIC ([6]; S. sanguis mef(A)): 4 µg/mL (≈ 5.45 µM); %R (S. pneumoniae [3]; 2002 (n = 103)): 43.1%
CC(=O)NC[C@H]1CN(c2ccc(N3CCOCC3)c(F)c2)C(=O)O1 [linezolid] | – | – | – | – | – | – | – | – | – | – | – | – | MIC [6]: 0.5 µg/mL (≈ 1.48 µM); %I (S. pneumoniae [3]): 0%; %R (S. pneumoniae [3]): 0%; %S (S. pneumoniae [3]): 100%
CC1(C)S[C@@H]2[C@H](NC(=O)[C@H](N)c3ccccc3)C(=O)N2[C@H]1C(=O)O [ampicillin] | 0.25 µg/mL (≈ 0.715 µM) | 1 µg/mL (≈ 2.86 µM) | 4 µg/mL (≈ 11.4 µM) | susceptible | – | – | – | – | – | – | – | – | MIC50 (H. influenzae (Hi)): 0.5 µg/mL (≈ 1.43 µM)
Quinupristin-Dalfopristin | – | – | – | – | 5.8% | 94.2% | 0% | 0% | 100% | 1% | 0% | 99% | %R (S. pneumoniae [3]; 2002 (n = 103)): 0%
amoxicillin/clavulanate | – | – | – | – | – | – | – | – | – | – | – | – | susceptible (%) (H. influenzae): 87.9%; susceptible (%) (M. catarrhalis [2]): 99.1%
CN[C@H](CC(C)C)C(=O)N[C@H]1C(=O)N[C@@H](CC(N)=O)C(=O)N[C@H]2C(=O)N[C@H]3C(=O)N[C@H](C(=O)N[C@H](C(=O)O)c4cc(O)cc(O)c4-c4cc3ccc4O)[C@H](O)c3ccc(c(Cl)c3)Oc3cc2cc(c3O[C@@H]2O[C@H](CO)[C@@H](O)[C@H](O)[C@H]2O[C@H]2C[C@](C)(N)[C@H](O)[C@H](C)O2)Oc2ccc(cc2Cl)[C@H]1O [vancomycin] | – | – | – | susceptible | – | – | – | – | – | – | – | – | %I (S. pneumoniae [3]): 0%; %R (S. pneumoniae [3]): 0%; %S (S. pneumoniae [3]): 100%
CO/N=C(\C(=O)N[C@@H]1C(=O)N2C(C(=O)O)=C(CSc3nc(=O)c(=O)[nH]n3C)CS[C@H]12)c1csc(N)n1 [ceftriaxone] | 0.25 µg/mL (≈ 0.451 µM) | 0.5 µg/mL (≈ 0.902 µM) | 1 µg/mL (≈ 1.8 µM) | – | – | – | – | – | – | – | – | – | MIC90 (H. influenzae (Hi)): 0.03 µg/mL (≈ 0.0541 µM); MIC50 (S. pneumoniae (Sp)): 0.03 µg/mL (≈ 0.0541 µM)
